Laboratory results reported in article PMC12016938, “A small molecule PKCε inhibitor reduces hyperalgesia induced by paclitaxel or opioid withdrawal” (JCI Insight, 2025).
Where “and” joins values, the source holds several entries; their conditions need not be identical. Equal values may be shown once. Read-outs that look alike come from different tables or passages of the source.

How the values were obtained:
CLK1 (CDC Like Kinase 1) = target: T1, CLK1 (CDC Like Kinase 1) (Homo sapiens, UniProt P49759); test: scanMax kinome panel, CLK1; assay type: binding; settings: 200 nM CP612; read-out: scanMax % of control, CLK1
T1 construct: purchased Eurofins-DiscoverX
T1 sequence (P49759 whole entry): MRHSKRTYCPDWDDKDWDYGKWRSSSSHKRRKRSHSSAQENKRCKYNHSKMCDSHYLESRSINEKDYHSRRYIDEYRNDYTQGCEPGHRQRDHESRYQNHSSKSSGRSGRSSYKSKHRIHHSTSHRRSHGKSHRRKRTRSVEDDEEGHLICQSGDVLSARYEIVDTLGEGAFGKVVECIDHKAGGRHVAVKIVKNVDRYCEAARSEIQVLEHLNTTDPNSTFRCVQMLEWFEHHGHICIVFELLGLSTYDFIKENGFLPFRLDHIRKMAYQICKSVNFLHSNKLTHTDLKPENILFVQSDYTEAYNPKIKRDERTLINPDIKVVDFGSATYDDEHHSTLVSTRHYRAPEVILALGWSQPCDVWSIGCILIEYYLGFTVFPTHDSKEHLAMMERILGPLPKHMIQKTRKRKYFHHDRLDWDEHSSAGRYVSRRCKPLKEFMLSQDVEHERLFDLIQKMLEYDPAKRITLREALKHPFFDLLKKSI
Procedure: (§1) CP612 was screened for kinome specificity at 200 nM against 468 kinases using the scanMax assay panel from Eurofins-DiscoverX. CP612 inhibited 10 other WT kinases besides PKCε, all to < 10% of control: CLK1 (CDC Like Kinase 1), CLK4, PKN1 (Protein kinase N1), PKN2, PKCδ, PKCη, PKCθ, PRKG2 (Protein Kinase CGMP-Dependent 2), ROCK1, and ROCK2.

PKCη = target: T2, PKCη (Homo sapiens, UniProt P24723); test: scanMax kinome panel, PKCη; assay type: binding; settings: 200 nM CP612; read-out: scanMax % of control, PKCη
T2 construct: purchased Eurofins-DiscoverX
T2 sequence (P24723 whole entry): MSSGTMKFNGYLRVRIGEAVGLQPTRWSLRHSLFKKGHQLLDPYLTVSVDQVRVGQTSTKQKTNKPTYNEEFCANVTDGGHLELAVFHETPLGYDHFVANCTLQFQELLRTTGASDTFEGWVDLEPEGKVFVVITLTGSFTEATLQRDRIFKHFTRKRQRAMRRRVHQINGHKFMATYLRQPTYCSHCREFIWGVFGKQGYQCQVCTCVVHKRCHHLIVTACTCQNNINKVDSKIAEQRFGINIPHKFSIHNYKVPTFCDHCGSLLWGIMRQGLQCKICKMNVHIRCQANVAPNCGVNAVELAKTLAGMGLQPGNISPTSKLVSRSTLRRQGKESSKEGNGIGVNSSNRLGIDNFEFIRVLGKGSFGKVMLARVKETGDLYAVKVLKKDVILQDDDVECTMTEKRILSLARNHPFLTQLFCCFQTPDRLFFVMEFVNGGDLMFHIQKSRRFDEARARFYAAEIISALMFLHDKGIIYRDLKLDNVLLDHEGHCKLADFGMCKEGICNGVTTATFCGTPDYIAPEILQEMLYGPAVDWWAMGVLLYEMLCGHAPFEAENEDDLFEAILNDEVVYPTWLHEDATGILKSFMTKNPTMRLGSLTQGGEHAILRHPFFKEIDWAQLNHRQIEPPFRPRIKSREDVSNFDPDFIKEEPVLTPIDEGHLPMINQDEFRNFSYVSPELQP
Procedure: as §1

ROCK2 = target: T3, ROCK2 (Homo sapiens, UniProt O75116); test: scanMax kinome panel, ROCK2; assay type: binding; settings: 200 nM CP612
T3 construct: purchased Eurofins-DiscoverX
T3 sequence (O75116 whole entry): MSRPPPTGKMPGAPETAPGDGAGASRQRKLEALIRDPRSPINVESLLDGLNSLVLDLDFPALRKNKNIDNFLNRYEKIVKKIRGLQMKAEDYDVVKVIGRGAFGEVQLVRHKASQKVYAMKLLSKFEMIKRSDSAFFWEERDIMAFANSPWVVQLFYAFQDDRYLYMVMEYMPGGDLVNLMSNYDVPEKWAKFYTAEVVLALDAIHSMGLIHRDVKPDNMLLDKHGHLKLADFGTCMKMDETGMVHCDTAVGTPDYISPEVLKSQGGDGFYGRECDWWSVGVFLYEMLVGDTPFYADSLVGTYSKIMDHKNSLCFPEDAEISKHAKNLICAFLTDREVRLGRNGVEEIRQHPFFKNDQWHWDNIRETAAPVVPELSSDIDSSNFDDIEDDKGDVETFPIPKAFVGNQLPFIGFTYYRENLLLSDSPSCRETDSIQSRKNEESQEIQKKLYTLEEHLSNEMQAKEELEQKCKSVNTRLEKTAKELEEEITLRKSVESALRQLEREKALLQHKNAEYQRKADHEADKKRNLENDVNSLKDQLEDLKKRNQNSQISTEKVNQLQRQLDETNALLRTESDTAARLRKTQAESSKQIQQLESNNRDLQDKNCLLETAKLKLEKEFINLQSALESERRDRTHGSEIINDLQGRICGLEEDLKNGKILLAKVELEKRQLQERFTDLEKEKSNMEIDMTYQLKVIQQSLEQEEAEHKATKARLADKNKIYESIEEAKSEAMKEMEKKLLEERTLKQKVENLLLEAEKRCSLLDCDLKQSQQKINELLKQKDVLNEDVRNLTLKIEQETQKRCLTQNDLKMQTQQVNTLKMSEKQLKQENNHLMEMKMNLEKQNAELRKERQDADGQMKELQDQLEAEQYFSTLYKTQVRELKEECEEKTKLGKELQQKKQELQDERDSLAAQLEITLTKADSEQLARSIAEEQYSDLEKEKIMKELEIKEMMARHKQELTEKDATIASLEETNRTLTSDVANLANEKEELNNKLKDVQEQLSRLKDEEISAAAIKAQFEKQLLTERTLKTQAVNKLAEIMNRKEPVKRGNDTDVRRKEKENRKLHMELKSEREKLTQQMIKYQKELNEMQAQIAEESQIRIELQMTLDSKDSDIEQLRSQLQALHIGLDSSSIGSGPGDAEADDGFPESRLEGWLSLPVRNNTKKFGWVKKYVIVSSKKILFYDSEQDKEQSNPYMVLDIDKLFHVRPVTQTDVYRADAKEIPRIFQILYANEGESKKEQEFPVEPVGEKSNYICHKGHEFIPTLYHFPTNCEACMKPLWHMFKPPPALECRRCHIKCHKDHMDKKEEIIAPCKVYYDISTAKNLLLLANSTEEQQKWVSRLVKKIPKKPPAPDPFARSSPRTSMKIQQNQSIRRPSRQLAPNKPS
Procedure: as §1

[1] = test system: hyperalgesia induced by morphine withdrawal; test: Prevention of hyperalgesia due to morphine withdrawal, von Frey SUDO; assay type: in vivo, C57BL/6J mice; settings: for von Frey filament number that led to paw withdrawal: prevention, individual mouse
Text: We next investigated if CP612 prevents hyperalgesia induced by withdrawal from repeated administration of morphine, in male and female C57BL/6J mice. […] These findings indicate that a single dose of the PKCε inhibitor can prevent hyperalgesia induced by opioid withdrawal.

PKCε [2] = target: T4, PKCε (Homo sapiens, UniProt Q02156); test: scanMax kinome panel (Eurofins-DiscoverX), PKCε; assay type: binding; design: purchased Eurofins-DiscoverX; settings: 200 nM CP612
T4 sequence (Q02156 1-737): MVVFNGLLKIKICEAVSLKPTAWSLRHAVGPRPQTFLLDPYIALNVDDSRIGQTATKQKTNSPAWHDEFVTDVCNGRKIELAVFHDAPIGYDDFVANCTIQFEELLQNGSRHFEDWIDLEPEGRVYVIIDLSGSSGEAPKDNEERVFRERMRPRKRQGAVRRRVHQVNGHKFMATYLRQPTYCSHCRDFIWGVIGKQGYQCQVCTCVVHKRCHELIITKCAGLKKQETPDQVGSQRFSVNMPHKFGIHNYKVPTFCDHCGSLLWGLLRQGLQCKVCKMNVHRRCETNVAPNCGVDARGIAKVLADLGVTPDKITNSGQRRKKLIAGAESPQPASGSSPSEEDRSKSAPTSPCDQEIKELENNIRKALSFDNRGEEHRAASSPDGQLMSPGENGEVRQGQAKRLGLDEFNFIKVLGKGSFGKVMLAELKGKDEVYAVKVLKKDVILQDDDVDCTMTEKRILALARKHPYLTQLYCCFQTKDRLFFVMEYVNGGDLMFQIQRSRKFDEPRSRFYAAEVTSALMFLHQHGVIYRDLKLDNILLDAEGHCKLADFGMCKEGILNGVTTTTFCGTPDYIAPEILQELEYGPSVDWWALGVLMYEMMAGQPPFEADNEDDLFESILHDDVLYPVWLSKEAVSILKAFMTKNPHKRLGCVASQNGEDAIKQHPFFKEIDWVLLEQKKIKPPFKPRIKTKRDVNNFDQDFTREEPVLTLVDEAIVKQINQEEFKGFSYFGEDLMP
Procedure: as §1

ROCK1 = ROCK1 (Homo sapiens, UniProt Q13464); test: scanMax kinome panel, ROCK1; assay type: binding; design: purchased Eurofins-DiscoverX; settings: 200 nM CP612
ROCK1, sequence (Q13464 whole entry): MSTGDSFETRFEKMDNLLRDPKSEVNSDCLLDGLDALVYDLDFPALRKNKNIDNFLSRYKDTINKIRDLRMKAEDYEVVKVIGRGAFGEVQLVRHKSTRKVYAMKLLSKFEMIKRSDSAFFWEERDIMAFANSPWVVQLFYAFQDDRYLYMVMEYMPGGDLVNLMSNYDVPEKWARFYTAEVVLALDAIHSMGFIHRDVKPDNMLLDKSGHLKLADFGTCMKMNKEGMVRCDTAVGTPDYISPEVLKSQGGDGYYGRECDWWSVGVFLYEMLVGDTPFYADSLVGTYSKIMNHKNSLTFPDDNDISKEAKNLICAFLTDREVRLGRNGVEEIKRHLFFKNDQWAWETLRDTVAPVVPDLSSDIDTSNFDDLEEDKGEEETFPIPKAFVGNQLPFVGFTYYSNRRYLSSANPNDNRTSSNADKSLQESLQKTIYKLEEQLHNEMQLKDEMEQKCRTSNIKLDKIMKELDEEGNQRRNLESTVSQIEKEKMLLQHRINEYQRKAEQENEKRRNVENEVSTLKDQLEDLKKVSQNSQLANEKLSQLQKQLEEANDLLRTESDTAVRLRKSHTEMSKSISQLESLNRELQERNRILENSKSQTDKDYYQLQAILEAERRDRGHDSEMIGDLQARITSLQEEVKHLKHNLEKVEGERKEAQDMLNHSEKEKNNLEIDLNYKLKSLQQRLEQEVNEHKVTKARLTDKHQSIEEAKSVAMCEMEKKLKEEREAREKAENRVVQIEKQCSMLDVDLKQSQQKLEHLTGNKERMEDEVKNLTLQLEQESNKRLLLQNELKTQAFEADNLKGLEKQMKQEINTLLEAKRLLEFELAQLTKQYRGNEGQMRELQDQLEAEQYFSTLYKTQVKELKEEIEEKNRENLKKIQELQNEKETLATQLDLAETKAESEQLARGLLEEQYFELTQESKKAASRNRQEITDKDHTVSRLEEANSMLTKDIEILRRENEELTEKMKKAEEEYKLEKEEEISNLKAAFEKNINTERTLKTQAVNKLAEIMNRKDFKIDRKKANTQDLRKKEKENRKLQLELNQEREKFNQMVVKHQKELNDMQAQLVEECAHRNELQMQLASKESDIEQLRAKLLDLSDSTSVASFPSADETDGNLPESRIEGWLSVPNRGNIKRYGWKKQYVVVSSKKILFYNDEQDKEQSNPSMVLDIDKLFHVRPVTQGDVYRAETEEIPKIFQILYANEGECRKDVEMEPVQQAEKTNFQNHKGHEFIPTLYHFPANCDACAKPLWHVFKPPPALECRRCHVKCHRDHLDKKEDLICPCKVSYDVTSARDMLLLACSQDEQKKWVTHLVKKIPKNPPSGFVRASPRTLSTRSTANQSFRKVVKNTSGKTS
Procedure: as §1

PKCε [3] = target: T4, PKCε; test: Lance-FRET kinase assay, PKCε; assay type: biochemical; design: His; AVI; made in house; host or cells: Sf9 cells
Procedure: Kinase assays. CP612 was assayed against His-AVI–tagged human PKCε (1 nM) produced in Sf9 cells, and ROCK1 (Carna Biosciences; 5 nM) using the Lance-FRET kinase assay system (PerkinElmer Revvity). Other human recombinant PKCs (SignalChem Biotech) were assayed in triplicate at the following concentrations: PKCβII 1.6 nM, PKCγ 500 pM, PKCδ 5 nM, PKCθ 500 pM, and PKCζ 500 pM. PKCs were incubated in a 15 μL reaction volume with kinase buffer (20 mM Tris-HCL [pH 7.4], 10 mM MgCl2, 0.25 mM EGTA, 0.1 mg/mL BSA, and 0.15% Triton X-100), 50 nM ULight-labeled CREBtide […] (PerkinElmer, TRF0107, Revvity), and test compound. Reactions were initiated by adding 2.5 μM ATP at 27°C and were terminated after 60 minutes with 10 μL of 2.5× Stop Solution/Detection Mix containing 20 mM EDTA and 4 nM LANCE Ultra Europium anti–phospho-[…] (Ala25Ser) peptide antibody (PerkinElmer, TRF0200, Revvity). After incubation at 27°C for another 60 minutes, phosphorylation was detected using a FlexStation 3 Microplate Reader (Molecular Devices) in LANCE TR-FRET mode (excitation = 340 nm, emission = 665 nm) and expressed as relative fluorescence units (RFU). The percentage of inhibition was calculated as: (signal without test compound − signal with test compound)/(signal without test compound − signal without ATP) × 100. The Z’ factor for this assay ranged between 0.72 and 0.86.
Kinase assays used 11-point concentration-response curves and results were analyzed by nonlinear regression using Prism 9 (GraphPad Software) to determine IC50 values. Other analyses were performed on Prism 9 and Statistica (Tibco Software). Scores for pain threshold, conditioned place preference, and self-administration were analyzed by ANOVA using the following factors. […] We used a Tukey’s test for post hoc comparisons across groups and Dunnett’s test for post hoc comparisons with own pain thresholds at baseline values in the pain studies. Somatic withdrawal scores were analyzed with a Kruskal-Wallis test due to the nonparametric nature of those data, followed by nonparametric post hoc comparisons according to Siegel and Castellan ([40]). A P value less than 0.05 was considered significant.

N[C@H](CNC(=O)C1(c2ccc(Cl)cc2)CCCC1)c1ccc(C(=O)Nc2ccncc2)cc1 [CP612]
remaining binding at 0.2 µM (CLK1 (CDC Like Kinase 1)): < 10%
remaining binding at 0.2 µM (PKCη): < 10%
scanMax % of control, ROCK2 (ROCK2): < 10 % of control
Effect on pain thresholds after repeated saline ([1]; male and female mice, CP612 20 mg/kg i.p.): not modified
Effect on development of morphine-withdrawal hyperalgesia ([1]; male and female mice, CP612 20 mg/kg i.p. 6 hours after last morphine injection): prevented
von Frey filament number that led to paw withdrawal ([1]; female mice, Morphine schedule, 1week): 9 and 8
von Frey filament number that led to paw withdrawal ([1]; female mice, Morphine schedule, 2weeks): 8.75
von Frey filament number that led to paw withdrawal ([1]; female mice, Morphine schedule, 3weeks): 8.5
von Frey filament number that led to paw withdrawal ([1]; female mice, Morphine schedule, 4weeks): 8.5
von Frey filament number that led to paw withdrawal ([1]; female mice, Morphine schedule, 24h): 7.5 and 9.5
von Frey filament number that led to paw withdrawal ([1]; female mice, Morphine schedule, Baseline): 9 and 9.5
von Frey filament number that led to paw withdrawal ([1]; female mice, Saline schedule, 1week): 9.5 and 9 and 8.5 and 10
von Frey filament number that led to paw withdrawal ([1]; female mice, Saline schedule, 2weeks): 9.5 and 9 and 10
von Frey filament number that led to paw withdrawal ([1]; female mice, Saline schedule, 3weeks): 9 and 9.5 and 10
von Frey filament number that led to paw withdrawal ([1]; female mice, Saline schedule, 4weeks): 9.5 and 9 and 10
von Frey filament number that led to paw withdrawal ([1]; female mice, Saline schedule, 24h): 9 and 8 and 8.5 and 10
von Frey filament number that led to paw withdrawal ([1]; female mice, Saline schedule, Baseline): 9.5 and 8.5 and 9 and 10 and 10.5
von Frey filament number that led to paw withdrawal ([1]; male mice, Morphine schedule, 1week): 9.5 and 7.5 and 8.5 and 9 and 8 and 10
von Frey filament number that led to paw withdrawal ([1]; male mice, Morphine schedule, 2weeks): 9 and 7.5 and 8 and 9.5 and 9.25 and 7.75 and 10.5
von Frey filament number that led to paw withdrawal ([1]; male mice, Morphine schedule, 3weeks): 8 and 9 and 9.5 and 10.5
von Frey filament number that led to paw withdrawal ([1]; male mice, Morphine schedule, 4weeks): 8 and 7.5 and 9.5 and 9 and 11 and 10
von Frey filament number that led to paw withdrawal ([1]; male mice, Morphine schedule, 24h): 8.5 and 7.5 and 9.5 and 8 and 7 and 10.5
von Frey filament number that led to paw withdrawal ([1]; male mice, Morphine schedule, Baseline): 7.5 and 7 and 8.5 and 9.5 and 9
von Frey filament number that led to paw withdrawal ([1]; male mice, Saline schedule, 1week): 9 and 8.5 and 9.5 and 10.5 and 10
von Frey filament number that led to paw withdrawal ([1]; male mice, Saline schedule, 2weeks): 6.5 and 7 and 9 and 8.5 and 8 and 9.5 and 10
von Frey filament number that led to paw withdrawal ([1]; male mice, Saline schedule, 3weeks): 9.5 and 9 and 10
von Frey filament number that led to paw withdrawal ([1]; male mice, Saline schedule, 4weeks): 8 and 6.5 and 6 and 9 and 7.5 and 9.5 and 10 and 10.5
von Frey filament number that led to paw withdrawal ([1]; male mice, Saline schedule, 24h): 7.5 and 7 and 9 and 9.5 and 10
von Frey filament number that led to paw withdrawal ([1]; male mice, Saline schedule, Baseline): 7.5 and 8.5 and 6.5 and 8 and 9 and 9.5 and 10.5
Duration of prevention of hyperalgesia after administration ([1]; single dose CP612 20 mg/kg i.p.): up to 4 weeks
scanMax result, PKCε (PKCε [2]): inhibited
scanMax % of control, ROCK1 (ROCK1): < 10 % of control
inhibition at 0.03 µM (PKCε [3]; 30 nM CP612, read-out: Inhibition of novel PKCs (PKCε)): > 50%
Relative potency within the nPKC subfamily (PKCε [3]; Figure 1B): most potent
IC50 (PKCε [3]; Figure 1B PKC isozyme panel, read-out: IC50 PKCε): 2.03 nM
IC50 (PKCε [3]; mean of all runs (count 42 CP612; 38 CIDD-0072424), 2.5 μM ATP, read-out: IC50 (nM) [Enzyme: PKCε], mean): 1.9 ± 0.4 nM
ROCK1/PKCε ratio, mean (PKCε [3]; mean of ratios of all runs): 54.8
